Values quoted from earlier work, collected in patent US8222237B2, “Progestational 3-(6,6-ethylene-17B-hydroxy-3-oxo-17A-pregna-4-ene-17A-yl)propionic acid G-lactones” (Evestra, Inc., priority 2008, dated 2012).

What was measured:
[1] = from a single entity tablet
[2] = at various pH values
[3] = acidic conditions such as encountered in the gastric environment

For `C[C@]12CCC(=O)C=C1[C@@H]1C[C@@H]1[C@H]1[C@@H]3[C@@H]4C[C@@H]4[C@@]4(CCC(=O)O4)[C@@]3(C)CC[C@@H]12` [drospirenone, 6β,7β,15β,16β-dimethylene-3-oxo-17α-pregn-4-ene-21,17-carbolactone], the absolute bioavailability [1] is given as “about 76%”, the solubility in water [2] is given as “only sparingly soluble” and the “isomerization under acidic conditions” value [3] is given as “undergo isomerization to a form that is inactive”.
